Here are results for 52 molecules from patent US9902728B2, “Pyrrolo and pyrazolopyrimidines as ubiquitin-specific protease 7 inhibitors” (Forma Therapeutics, Inc., priority 2014, dated 2018).

The first assay deals with T1, USP7 (Homo sapiens, UniProt Q93009).
T1 construct: USP7, construct USP7 (208-1102) 6*His, Viva Biotech; 6xHis (C); purchased Viva Biotech
T1 sequence (Q93009 208-1102): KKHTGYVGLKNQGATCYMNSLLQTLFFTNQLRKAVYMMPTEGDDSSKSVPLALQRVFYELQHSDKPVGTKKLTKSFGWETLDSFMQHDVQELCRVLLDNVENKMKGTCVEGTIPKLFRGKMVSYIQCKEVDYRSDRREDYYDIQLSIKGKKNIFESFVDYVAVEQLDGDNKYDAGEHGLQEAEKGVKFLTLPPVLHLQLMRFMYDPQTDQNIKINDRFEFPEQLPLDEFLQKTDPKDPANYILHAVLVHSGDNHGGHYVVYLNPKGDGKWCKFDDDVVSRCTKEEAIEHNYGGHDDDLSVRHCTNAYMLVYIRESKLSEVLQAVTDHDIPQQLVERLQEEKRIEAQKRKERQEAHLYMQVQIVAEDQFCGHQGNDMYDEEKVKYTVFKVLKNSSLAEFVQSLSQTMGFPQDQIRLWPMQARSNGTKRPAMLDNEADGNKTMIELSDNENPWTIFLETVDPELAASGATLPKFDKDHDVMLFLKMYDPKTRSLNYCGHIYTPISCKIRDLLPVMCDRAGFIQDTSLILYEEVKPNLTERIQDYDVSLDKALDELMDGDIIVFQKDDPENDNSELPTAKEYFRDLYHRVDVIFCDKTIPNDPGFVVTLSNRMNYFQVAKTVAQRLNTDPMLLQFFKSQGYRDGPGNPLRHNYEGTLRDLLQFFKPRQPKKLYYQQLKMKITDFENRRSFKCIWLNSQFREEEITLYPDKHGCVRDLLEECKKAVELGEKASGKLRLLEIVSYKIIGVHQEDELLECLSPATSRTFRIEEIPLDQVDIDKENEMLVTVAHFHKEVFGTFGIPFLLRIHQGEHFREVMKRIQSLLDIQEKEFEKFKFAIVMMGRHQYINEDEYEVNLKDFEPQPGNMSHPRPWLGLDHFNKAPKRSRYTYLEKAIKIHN
In words: USP7 Assay A (Ubitquin-Rhodamine 110 Assay). It counts as biochemical. Conditions: USP7 activity in USP7 assay A and B (table does not say which assay per compound); read-out: USP7_IC50. As to the method: Each assay was performed in a final volume of 15 μL in assay buffer containing 20 mM Tris-HCl (pH 8.0, (1M Tris-HCl, pH 8.0 solution; Corning 46-031-CM)), 1 mM GSH (L-Glutathione reduced; Sigma #G4251), 0.03% BGG ([…], Sigma, #G7516-25G), and 0.01% Triton X-100 (Sigma, #T9284-10L). […] 5 μL of 2× enzyme was added to assay plates (pre-stamped with compound) preincubated with USP7 for 30 minutes and then 5 μL of 2×Ub-Rh110 was added to assay plates. […] Fluorescence was read on the Envision (Excitation at 485 nm and Emission at 535 nm; Perkin Elmer) or on the PheraSTAR (Excitation at 485 nm and Emission at 535 nm; BMG Labtech).
Data from USP7 Assays A and B were reported as percent inhibition (inh) compared with control wells based on the following equation: % inh=1−((FLU−AveLow)/(AveHigh−AveLow)) where FLU=measured Fluorescence (See Tables 6-10). AveLow=average Fluorescence of no enzyme control (n=16). AveHigh=average Fluorescence of DMSO control (n=16). […] Data is fitted using the Levenburg Marquardt algorithm.
Take `Cn1ccc(NC2CCC(C(=O)N3CCC(O)(Cn4cnc5c(ccn5-c5ccc(F)cc5)c4=O)CC3)CC2)n1` (stereo not shown) [Compound I-1040]: the IC50 is 1 to 10 µM. On to `O=C(C[C@H](C(F)F)n1ccc(Cl)n1)N1CCC(O)(Cn2cnc3c(cnn3-c3ccc(F)cc3)c2=O)CC1` [Compound I-731], for which the IC50 is below 0.2 µM. Still for that read-out and setting: the figure for `O=C(C[C@H](C(F)F)n1cccn1)N1CCC(O)(Cn2cnc3c(cnn3-c3ccc(CN4CCC4)cc3)c2=O)CC1` [Compound I-855] is below 0.2 µM; for `O=C(C[C@@H](C(F)F)n1cc(Cl)cn1)N1CCC(O)(Cn2cnc3c(cnn3-c3ccc(F)cc3)c2=O)CC1` [Compound I-734] it is above 10 µM. Same read-out and setting: the figure for `O=C(C1CC1)N1CCC(O)(Cn2cnc3c(cnn3-c3ccc(-c4cnn5c4COCC5)cc3)c2=O)CC1` [Compound I-1673] is 1 to 10 µM.

With `O=C(c1cnc(C2CC2)o1)N1CCC(O)(Cn2cnc3c(cnn3-c3ccc(-n4cccn4)cc3)c2=O)CC1` [Compound I-780], the IC50 was below 0.2 µM. With `Cn1cc(C(=O)N2CCC(O)(Cn3cnc4c(cnn4-c4ccc(Cl)cc4)c3=O)CC2)cn1` [Compound I-772], the IC50 lay in the range of 0.2 to 1 µM.

As for `CC1(C(=O)N2CCC(O)(Cn3cnc4c(cnn4-c4ccc(-n5cccn5)cc4)c3=O)CC2)CCC1` [Compound I-782], the IC50 was below 0.2 µM. Turning to `NCc1cnn(-c2ccc(C(=O)N3CCC(O)(Cn4cnc5c(cnn5-c5ccc(F)cc5)c4=O)CC3)cc2)c1` [Compound I-613], the IC50 is 1 to 10 µM. `O=C(C1CCC(Oc2cccc(N3CCC3)n2)CC1)N1CCC(O)(Cn2cnc3c(cnn3-c3ccc(F)cc3)c2=O)CC1` (stereo not shown) [Compound I-1018]: the IC50 is below 0.2 µM. On the same count and under the same terms, with `O=C(C[C@H](C(F)F)n1ccc(F)n1)N1CCC(O)(Cn2cnc3c(cnn3-c3ccc(N4CC5CC5C4)cc3)c2=O)CC1` (stereo partly shown) [Compound I-785] the figure was 0.2 to 1 µM; with `C[C@H]1CN(c2cccc(-n3ncc4c(=O)n(CC5(O)CCN(C(=O)C6(C)CC6)CC5)cnc43)c2)CCN1C` [Compound I-1646], below 0.2 µM.

Turning to `CN1CCN(c2ccc(-n3ncc4c(=O)n(CC5(O)CCN(C(=O)C[C@@H](C(F)F)n6cccn6)CC5)cnc43)cc2)CC1` (single isomer, unassigned) [Compound I-827], the IC50 fell in the range of 1 to 10 µM. As to `O=C(c1cnc(N2CCOCC2)o1)N1CCC(O)(Cn2cnc3c(cnn3-c3ccc(F)cc3)c2=O)CC1` [Compound I-555], the IC50 was in the range of 0.2 to 1 µM. As to `C[C@H](CC(=O)N1CCC(O)(Cn2cnc3c(cnn3-c3ccc(N4CC[C@@](C)(O)C4)cc3)c2=O)CC1)n1cccn1` [Compound I-840], the IC50 was 1 to 10 µM. With `O=C(c1ccc(F)cc1)N1CCC(O)(Cn2cnc3c(cnn3-c3ccc(-c4cnn(C5CS(=O)(=O)C5)c4)cc3)c2=O)CC1` [Compound I-1745], the IC50 lay in the range of 0.2 to 1 µM. In the case of `O=C(c1cnn(C2CC2)c1)N1CCC(O)(Cn2cnc3c(cnn3-c3ccc(Cl)cc3)c2=O)CC1` [Compound I-1095], the IC50 was in the range of 0.2 to 1 µM. Turning to `O=C(C1CCC(Nc2ccccc2)CC1)N1CCC(O)(Cn2cnc3c(cnn3-c3ccc(F)cc3)c2=O)CC1` (stereo not shown) [Compound I-767], the IC50 is 0.2 to 1 µM.

Regarding `Cn1ncc2ccc(-c3ccc(-n4ncc5c(=O)n(CC6(O)CCN(C(=O)C7CC7)CC6)cnc54)cc3)cc21` [Compound I-1764], the IC50 lay within 1 to 10 µM. Take `Cc1cnn([C@@H](CC(=O)N2CCC(O)(Cn3cnc4c(cnn4-c4ccc(F)cc4)c3=O)CC2)C(F)F)c1` (single isomer, unassigned) [Compound I-736]: the IC50 was above 10 µM. Same read-out and setting: the figure for `Cc1cncc(OC2CCC(C(=O)N3CCC(O)(Cn4cnc5c(cnn5-c5ccc(F)cc5)c4=O)CC3)CC2)n1` (stereo not shown) [Compound I-1015] is 0.2 to 1 µM. In the case of `CC1(C(=O)N2CCC(O)(Cn3cnc4c(cnn4-c4cccc(N5CCC(C#N)CC5)c4)c3=O)CC2)CC1` [Compound I-1751], the IC50 is 0.2 to 1 µM.

For `CN1CCN(c2cccc(-n3ncc4c(=O)n(CC5(O)CCN(C(=O)C[C@@H](C(F)F)n6cccn6)CC5)cnc43)c2)CC1` [Compound I-830], the IC50 lay within 0.2 to 1 µM. As for `CN1CCN(c2ccc(-n3ncc4c(=O)n(CC5(O)CCN(C(=O)C[C@H](C(F)F)n6cccn6)CC5)cnc43)cc2)CC1` [Compound I-826], the IC50 is below 0.2 µM.

As for `Cc1ncc(C(=O)N2CCC(O)(Cn3cnc4c(cnn4-c4ccc(C5CCC5)cc4)c3=O)CC2)o1` [Compound I-846], the IC50 lay within 0.2 to 1 µM. Regarding `O=C(C[C@@H](C(F)F)n1ccc(F)n1)N1CCC(O)(Cn2cnc3c(cnn3-c3ccc(C(F)(F)F)cc3)c2=O)CC1` [Compound I-1037], the IC50 fell in the range of 1 to 10 µM.

Still in this assay, the particulars now being: USP7 assay A and B (table does not say which assay per compound); read-out: USP7_IC50.
Consider `C[C@H](CC(=O)N1CCC(O)(Cn2cnc3c(cnn3-c3ccccc3)c2=O)CC1)n1cccc1` [Compound I-177], for which the IC50 is below 0.2 µM. In the case of `O=C(c1ccc(F)cc1)N1CCC(O)(Cn2cnc3c(cnn3-c3cnn(-c4ccccc4)c3)c2=O)CC1` [Compound I-704], the IC50 lay in the range of 1 to 10 µM.

As for `Cn1cc(-n2ncc3c(=O)n(CC4(O)CCN(C(=O)c5ccc(F)cc5)CC4)cnc32)cn1` [Compound I-703], the IC50 fell in the range of 1 to 10 µM. With `C#CC(=O)N1CC[C@H]1C(=O)N1CCC(O)(Cn2cnc3c(cnn3-c3ccc(F)cc3)c2=O)CC1` [Compound I-803], the IC50 lay within 0.2 to 1 µM. Still for that read-out and setting: with `O=C(c1ccc(F)cc1)N1CCC(O)(Cn2cnc3c(cnn3-c3ccc(F)c(N4CCOCC4)c3)c2=O)CC1` [Compound I-639] the figure was 1 to 10 µM; with `CN(C(=O)N1CCC(O)(Cn2cnc3c(cnn3C)c2=O)CC1)c1ccc(-c2ccccc2)cc1` [Compound I-4, N-([1,1′-biphenyl]-4-yl)-4-hydroxy-N-methyl-4-((1-methyl-4-oxo-1,4-dihydro-5H-pyrazolo[3,4-d]pyrimidin-5-yl)methyl)piperidine-1-carboxamide], above 10 µM.

Take `O=C(O)Cc1cccc(-n2ncc3c(=O)n(CC4(O)CCN(C(=O)c5ccccc5)CC4)cnc32)c1` [Compound I-11, 2-(3-(5-((1-Benzoyl-4-hydroxypiperidin-4-yl)methyl)-4-oxo-4,5-dihydro-1H-pyrazolo[3,4-d]pyrimidin-1-yl)phenyl)acetic acid]: the IC50 is above 10 µM. As for `O=C(N[C@H]1CNCC1F)N1CCC(O)(Cn2cnc3c(cnn3-c3ccc(-c4ccccc4)cc3)c2=O)CC1` (stereo partly shown) [Compound I-664], the IC50 lay in the range of 1 to 10 µM.

As to `Cn1ncc2c(=O)n(CC3(O)CCN(C(=O)CC(c4ccccc4)C(F)F)CC3)cnc21` (stereo not shown) [Compound I-147], the IC50 lay within 1 to 10 µM. In the case of `O=C(c1ccc(OC(F)F)cc1)N1CCC(O)(Cn2cnc3c(cnn3-c3cccc(CO)c3)c2=O)CC1` [Compound I-989], the IC50 fell in the range of 1 to 10 µM. As for `Cc1oncc1S(=O)(=O)Nc1cccc(-n2ncc3c(=O)n(CC4(O)CCN(C(=O)C5CC5)CC4)cnc32)c1` [Compound I-1400], the IC50 is 1 to 10 µM. For `CC1(C(=O)N2CCC(O)(Cn3cnc4c(cnn4-c4ccc(-c5cnn(C(F)F)c5)cc4)c3=O)CC2)CC1` [Compound I-1800], the IC50 is below 0.2 µM. As to `CC(O)(c1ccc(C(=O)N2CCC(O)(Cn3cnc4c(cnn4-c4ccccc4)c3=O)CC2)cc1)C(F)(F)F` (stereo not shown) [Compound I-291], the IC50 lay in the range of 1 to 10 µM.

With `COc1ccc(C(=O)N2CCC(O)(C(C)n3cnc4c(cnn4-c4ccc(F)cc4)c3=O)CC2)cc1` (stereo not shown) [Compound I-614], the IC50 was above 10 µM. For `CC(CC(=O)N1CCC(O)(Cn2cnc3c(cnn3-c3ccc(-c4ccc(F)cc4)cc3)c2=O)CC1)n1cccn1` (stereo not shown) [Compound I-652], the IC50 lay in the range of 0.2 to 1 µM. For the molecule `O=C(C1CC1)N1CCC(O)(Cn2cnc3c(cnn3-c3ccc(NS(=O)(=O)C4CC4)cc3)c2=O)CC1` [Compound I-1432], the IC50 is 1 to 10 µM.

Consider `Cc1ccc(-n2ncc3c(=O)n(CC4(O)CCN(C(=O)c5cnc(C)o5)CC4)cnc32)cc1` [Compound I-1514], for which the IC50 was 0.2 to 1 µM. Still for that read-out and setting: the figure for `Cn1ncc2c(=O)n(CC3(O)CCN(C(=O)c4ccc5c(c4)CCN(c4ccccc4)C5)CC3)cnc21` [Compound I-115] is 1 to 10 µM. With `C[C@@]1(O)CCN(c2cc(-n3ncc4c(=O)n(CC5(O)CCN(C(=O)C6CC6)CC5)cnc43)ccc2F)C1` [Compound I-638], the IC50 lay within 0.2 to 1 µM.

Consider `CN(C)C(=O)N1CCC(O)(Cn2cnc3c(cc(-c4ccccc4)n3-c3ccc(F)cc3)c2=O)CC1` [Compound I-706], for which the IC50 lay within 1 to 10 µM.

Take `O=C(Nc1ccc(-n2ncc3c(=O)n(CC4(O)CCN(C(=O)C5CC5)CC4)cnc32)cc1)C1CCOCC1` [Compound I-1395]: the IC50 lay within 1 to 10 µM. Regarding `Cn1cnc(C(=O)N2CCC(O)(Cn3cnc4c(cnn4-c4ccccc4)c3=O)CC2)c1` [Compound I-155], the IC50 is 1 to 10 µM.

`CNC1CCN(c2ccc(-c3ccc(-n4ncc5c(=O)n(CC6(O)CCN(C(=O)C7CC7)CC6)cnc54)cc3)cc2)C1` (stereo not shown) [Compound I-688]: the IC50 is 0.2 to 1 µM.

In the case of `O=C(N[C@@H]1CNCC1F)N1CCC(O)(Cn2cnc3c(cnn3-c3ccc(-c4ccccc4)cc3)c2=O)CC1` (stereo partly shown) [Compound I-663], the IC50 was above 10 µM.

In the case of `Cc1ccc(-n2ncc3c(=O)n(CC4(O)CCN(C(=O)C[C@@H](c5ccccc5)C(F)(F)F)CC4)cnc32)cc1` [Compound I-145], the IC50 was below 0.2 µM. Take `O=C(C1CC1)N1CCC(O)(Cn2cnc3c(cnn3-c3cccc(N4CCCC4)c3)c2=O)CC1` [Compound I-1200]: the IC50 is 0.2 to 1 µM.
